Each structure is given as a SMILES string.

This note sets out measurements from patent US8207146B2, “Phenothiazine derivative having a double bond, method for the production thereof, and use thereof as a pharmaceutical” (Sanofi-Aventis, priority 2007, dated 2012).

This data set deals with T1, Human glucokinase (Homo sapiens, UniProt P35557).
T1 sequence (P35557 6-464 isoform P35557-3 limits assumed): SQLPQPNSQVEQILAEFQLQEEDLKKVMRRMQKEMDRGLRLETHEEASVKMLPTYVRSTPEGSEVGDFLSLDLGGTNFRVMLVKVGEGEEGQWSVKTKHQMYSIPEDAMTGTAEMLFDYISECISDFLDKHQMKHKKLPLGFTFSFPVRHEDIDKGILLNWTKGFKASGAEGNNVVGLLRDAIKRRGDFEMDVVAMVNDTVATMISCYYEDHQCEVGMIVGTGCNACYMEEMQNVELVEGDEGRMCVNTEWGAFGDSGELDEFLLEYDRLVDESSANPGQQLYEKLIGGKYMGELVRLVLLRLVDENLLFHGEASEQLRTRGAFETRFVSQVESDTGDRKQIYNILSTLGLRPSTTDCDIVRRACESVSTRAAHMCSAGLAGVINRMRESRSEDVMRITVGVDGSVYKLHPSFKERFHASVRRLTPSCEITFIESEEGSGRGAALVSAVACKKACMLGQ
Particulars: 5 mM glucose; for EC150: concentration of test compound which increases the enzymatic activity by 50%, 1 mM ATP, 25° C., pH 7; for Fold induction: maximum fold stimulation: highest change in extinction in the range 0.1-100 μM relative to change without test substance.

Consider `CN1c2ccccc2S(=O)(=O)c2ccc(/C(=C\C3CCCC3)C(=O)Nc3ccn(C)n3)cc21` [Example 1, (E)-3-cyclopentyl-2-(10-methyl-5,5-dioxo-5,10-dihydrophenothiazin-2-yl)-N-(1-methyl-1H-pyrazol-3-yl)acrylamide], for which the EC150 is 1.70 µM and the Fold induction was 3.2.

As to `COc1ccc2nc(NC(=O)/C(=C/C3CCC(=O)CC3)c3ccc4c(c3)Nc3ccccc3S4(=O)=O)sc2n1` [Example 4, (E)-2-(5,5-dioxo-5,10-dihydrophenothiazin-2-yl)-N-(5-methoxythiazolo[5,4-b]pyridin-2-yl)-3-(4-oxocyclohexyl)acrylamide], the EC150 was found to be 0.2 µM and the Fold induction is listed as 4.8.
